In ChEMBL document CHEMBL3297721, “Protein-ligand interactions: probing the energetics of a putative cation-π interaction” (Bioorg Med Chem Lett, 2014):
Square brackets hold non-standard residues; d marks the D form. Peptide text beside a SMILES is read from it. * marks the point of attachment. pY = N[C@@H](Cc1ccc(OP(=O)(O)O)cc1)C(=O)O; Hydrocinnamoyl = O=C(CCc1ccccc1)*; Ac6c = NC1(C(=O)O)CCCCC1; Cbz = O=C(OCc1ccccc1)*

target: T1, Growth factor receptor-bound protein 2 (Homo sapiens, UniProt P62993); experiment: Binding affinity to Grb2 SH2 domain (60 to 151) (unknown origin) expressed in Escherichia coli BL21(DE3) after overnight incubation by ELISA

SMILES | IC50 [µM]
C[C@](NC(=O)[C@H](Cc1ccc(OP(=O)(O)O)cc1)NC(=O)OCc1cccc(N)c1)(C(=O)N[C@@H](CC(N)=O)C(N)=O)c1ccc(OP(=O)(O)O)cc1 | 0.013

target: T1, Growth factor receptor-bound protein 2; experiment: Binding affinity to Grb2 SH2 domain (unknown origin) by isothermal titration calorimetry

Ka [×10⁶ /M] | SMILES
11.4 | Cn1cc(CCC(=O)N[C@@H](Cc2ccc(OP(=O)(O)O)cc2)C(=O)NC2(C(=O)N[C@@H](CC(N)=O)C(N)=O)CCCCC2)c2ccccc21
6.5 | NC(=O)C[C@H](NC(=O)C1(NC(=O)[C@H](Cc2ccc(OP(=O)(O)O)cc2)NC(=O)OCc2ccccc2)CCCCC1)C(N)=O (Cbz-[pY]-[Ac6c]-Asn-NH2)
23.4 | NC(=O)C[C@H](NC(=O)C1(NC(=O)[C@H](Cc2ccc(OP(=O)(O)O)cc2)NC(=O)CCc2ccccc2)CCCCC1)C(N)=O (Hydrocinnamoyl-[pY]-[Ac6c]-Asn-NH2)
28.8 | NC(=O)C[C@H](NC(=O)C1(NC(=O)[C@H](Cc2ccc(OP(=O)(O)O)cc2)NC(=O)CCC2CCCCC2)CCCCC1)C(N)=O

SMILES | Ka [×10⁶ /M]
CC(=O)N[C@@H](Cc1ccc(OP(=O)(O)O)cc1)C(=O)NC1(C(=O)N[C@@H](CC(N)=O)C(N)=O)CCCCC1 (HELM PEPTIDE1{[ac].[O=C([C@H](Cc1ccc(OP(=O)(O)O)cc1)N[*:1])[*:2]].[O=C(C1(N[*:1])CCCCC1)[*:2]].N.[am]}$$$$V2.0) | 7
NC(=O)C[C@H](NC(=O)C1(NC(=O)[C@H](Cc2ccc(OP(=O)(O)O)cc2)NC(=O)OCc2cccc(N)c2)CCCCC1)C(N)=O | 8.8
